Experimental data as given in patent US12065428B2, “Anti-viral compounds” (Aligos Therapeutics, Inc., priority 2021, dated 2024).
Where two headings read alike, the source gives them in different places.

Columns and labels:
[1] = system: SARS-CoV-2-GHB-03021/2020; experiment: microbe, parasite or virus in culture; type: cell-based; settings: Severe acute respiratory syndrome coronavirus 2, Vero C1008, 96 h; read-out: VeroE6 + CP (EC50)
[2] = system: human beta-coronavirus OC43; experiment: OC43 coronavirus assay in HeLa cells (cytopathic effect, cell-titer-glo); type: cell-based
[3] = Cytotoxicity plates without OC43 virus in HeLa cells; type: cell-based; settings: human, HeLa cells (uninfected)
How it was run: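 HeLa cells pretreated 4 h with serially diluted compounds, then infected with OC43 at a dose giving 80-90% viability loss and incubated 6 days at 33 °C. Viability by CellTiter-Glo luminescence; EC50 from four-parameter fit of CPE inhibition. Uninfected parallel plates gave cytotoxicity.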

HRV3C = target: T1, HRV3C (Human rhinovirus 14, UniProt P03303); experiment: biochemical; settings: read-out: HRV IC50
T1 construct: SARS-Cov-2 3CLpro and HRV3C Duplex Assay

human cathepsin L = target: T2, human cathepsin L (Homo sapiens, UniProt P07711); experiment: Cathepsin L assay (Z-FR-AMC fluorescence); type: biochemical; settings: 10 pM human cathepsin L, 30 mins preincubation; class symbols
T2 construct: purchased R&D Systems
How it was run: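 Human cathepsin L at 10 pM was preincubated 30 min with compound, then reaction started with Z-FR-AMC (2 μM final). Fluorescence (355/460 nm) read every 2 min for 30 min; IC50 from four-parameter curve fit.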

SARS-Cov-2 3CLpro = target: T3, SARS-Cov-2 3CLpro (Severe acute respiratory syndrome coronavirus 2, UniProt P0DTD1); experiment: SARS-Cov-2 3CLpro and HRV3C duplex assay (SAMDI-MS): 3CLpro; type: biochemical; settings: 3CLpro, duplex assay, 30 mins preincubation; class symbols; read-out: SARS-Cov-2 IC50
T3 construct: SARS-Cov-2 3CLpro and HRV3C Duplex Assay

3CLpro = 3CLpro (Severe acute respiratory syndrome coronavirus 2, UniProt P0DTD1); settings: cited from earlier work
SARS-CoV-2 = settings: cited from earlier work
[4] = Betacoronavirus 1, 144 h, OC43 in HeLa cells, 6 days at 33° C., class symbols, read-out: EC50
[5] = HRV3C, duplex assay, 30 mins preincubation, class symbols

T1 sequence (P03303 1538-1719): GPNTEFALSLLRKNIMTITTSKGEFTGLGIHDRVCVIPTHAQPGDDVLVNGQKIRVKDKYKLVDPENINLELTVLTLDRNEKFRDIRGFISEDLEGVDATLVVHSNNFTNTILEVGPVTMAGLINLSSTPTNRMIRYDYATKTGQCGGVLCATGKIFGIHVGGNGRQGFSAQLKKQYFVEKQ
T2 sequence (P07711 114-333): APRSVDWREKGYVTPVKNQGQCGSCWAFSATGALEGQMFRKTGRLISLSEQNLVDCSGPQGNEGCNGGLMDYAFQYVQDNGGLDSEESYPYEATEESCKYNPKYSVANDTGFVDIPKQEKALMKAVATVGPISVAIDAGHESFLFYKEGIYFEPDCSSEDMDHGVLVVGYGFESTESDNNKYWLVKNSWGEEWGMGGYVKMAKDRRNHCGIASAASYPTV

Compound: O=C(NC1CC1)C(=O)[C@H](C[C@@H]1CCNC1=O)NC(=O)[C@@H]1CC2(CCN1C(=O)c1cc3ccccc3n1C1CC1)CC2 [Example 8]
- EC50 [1]: < 1 µM
- EC50 [2, 4]: 100 to 1000 nM
- CC50 at 6 days ([3]; class symbols): ≥ 100 µM
- IC50 (HRV3C; [5]): 2000 to 20000 nM
- IC50 (human cathepsin L): ≥ 10 µM
- IC50 (SARS-Cov-2 3CLpro): < 20 nM

Compound: O=C(NC1CC1)C(=O)[C@H](C[C@@H]1CCNC1=O)NC(=O)[C@@H]1CC2(CCN1C(=O)c1cc3ccccn3n1)CC2 [Example 9]
- EC50 [1]: 1 to 10 µM
- EC50 [2, 4]: 1000 to 10000 nM
- CC50 at 6 days ([3]; class symbols): ≥ 100 µM
- IC50 (HRV3C; [5]): 2000 to 20000 nM
- IC50 (human cathepsin L): ≥ 10 µM
- IC50 (SARS-Cov-2 3CLpro): 200 to 2000 nM

Compound: Cn1nc(C(=O)N2CCC3(CC3)C[C@H]2C(=O)N[C@@H](C[C@@H]2CCNC2=O)C(=O)C(=O)NC2CC2)c2ccccc21 [Example 10]
- EC50 [1]: 1 to 10 µM
- EC50 [2, 4]: 1000 to 10000 nM
- CC50 at 6 days ([3]; class symbols): ≥ 100 µM
- IC50 (HRV3C; [5]): 200 to 2000 nM
- IC50 (human cathepsin L): ≥ 10 µM
- IC50 (SARS-Cov-2 3CLpro): 20 to 200 nM

Compound: Cn1cc(C(=O)N2CCC3(CC3)C[C@H]2C(=O)N[C@@H](C[C@@H]2CCNC2=O)C(=O)C(=O)NC2CC2)c2ccccc21 [Example 11]
- EC50 [1]: 1 to 10 µM
- EC50 [2, 4]: 1000 to 10000 nM
- CC50 at 6 days ([3]; class symbols): ≥ 100 µM
- IC50 (HRV3C; [5]): < 20 nM
- IC50 (human cathepsin L): 1 to 10 µM
- IC50 (SARS-Cov-2 3CLpro): 20 to 200 nM

Compound: O=C(NC1CC1)C(=O)C(C[C@@H]1CCNC1=O)NC(=O)[C@@H]1CC2(CCN1C(=O)c1cc3cccc(Cl)c3s1)CC2 (stereo partly drawn) [Example 12, (5S)-6-(7-chlorobenzo[b]thiophene-2-carbonyl)-N-(4-(cyclopropylamino)-3,4-dioxo-1-((S)-2-oxopyrrolidin-3-yl)butan-2-yl)-6-azaspiro[2.5]octane-5-carboxamide]
- EC50 [1]: < 1 µM
- EC50 [2, 4]: 100 to 1000 nM
- CC50 at 6 days ([3]; class symbols): 10 to 100 µM
- IC50 (HRV3C; [5]): 20 to 200 nM
- IC50 (human cathepsin L): 1 to 10 µM
- IC50 (SARS-Cov-2 3CLpro): < 20 nM

Compound: CN1CCN(c2ccc(C(=O)N3CCC4(CC4)C[C@H]3C(=O)N[C@@H](C[C@@H]3CCNC3=O)C(=O)C(=O)NC3CC3)cc2)CC1 [Example 13, (3S)—N-cyclopropyl-3-{[(5S)-6-[4-(4-methylpiperazin-1-yl)benzoyl]-6-azaspiro[2.5]octan-5-yl]formamido}-2-oxo-4-[(3S)-2-oxopyrrolidin-3-yl]butanamide]
- EC50 [1]: > 50 µM
- EC50 ([2]; Betacoronavirus 1, OC43, HeLa): > 10000 nM
- CC50 at 6 days ([3]; class symbols): ≥ 100 µM
- IC50 (HRV3C): > 10000 nM
- IC50 (human cathepsin L): 1 to 10 µM
- IC50 (SARS-Cov-2 3CLpro): 200 to 2000 nM

Compound: N#C[C@H](C[C@@H]1CCNC1=O)NC(=O)[C@@H]1CC2(CCN1C(=O)c1ncc(-c3ccccc3)s1)CC2 [Example 52, (S)—N—((S)-1-cyano-2-((S)-2-oxopyrrolidin-3-yl)ethyl)-6-(5-phenylthiazole-2-carbonyl)-6-azaspiro[2.5]octane-5-carboxamide]
- EC50 [1]: 10 to 100 µM
- EC50 ([2]; Betacoronavirus 1, OC43, HeLa): > 10000 nM
- CC50 at 6 days ([3]; numeric bound, unit inferred): > 100 µM
- IC50 (HRV3C; HRV3C, duplex assay, numeric bound: >10 indicates an IC50>10000 nM): > 10000 nM
- IC50 (human cathepsin L): ≥ 10 µM
- IC50 (SARS-Cov-2 3CLpro): 200 to 2000 nM

Compound: CN1CCN(C(=O)N[C@@H](Cc2ccccc2)C(=O)N[C@H](/C=C/S(=O)(=O)c2ccccc2)CCc2ccccc2)CC1 [Example K117777]
- inhibitory effect on the 3CLpro (3CLpro): lacks an inhibitory effect
- antiviral effect when TMPRSS2 was expressed (SARS-CoV-2; A549-ACE2 expressing TMPRSS2 (Steuten et al.)): abolished
- inhibition of SARS-CoV-2 (SARS-CoV-2; VeroE6, A549-ACE2 and/or HeLa-ACE2 (Mellott et al.)): potent inhibition
